# Measurements reported in PMC3820677 (PLoS ONE, 2013).
# Target: mKv1.3 (Mus musculus, UniProt P16390)
# Assay: cell-based
# mKv1.3, sequence (P16390 whole entry): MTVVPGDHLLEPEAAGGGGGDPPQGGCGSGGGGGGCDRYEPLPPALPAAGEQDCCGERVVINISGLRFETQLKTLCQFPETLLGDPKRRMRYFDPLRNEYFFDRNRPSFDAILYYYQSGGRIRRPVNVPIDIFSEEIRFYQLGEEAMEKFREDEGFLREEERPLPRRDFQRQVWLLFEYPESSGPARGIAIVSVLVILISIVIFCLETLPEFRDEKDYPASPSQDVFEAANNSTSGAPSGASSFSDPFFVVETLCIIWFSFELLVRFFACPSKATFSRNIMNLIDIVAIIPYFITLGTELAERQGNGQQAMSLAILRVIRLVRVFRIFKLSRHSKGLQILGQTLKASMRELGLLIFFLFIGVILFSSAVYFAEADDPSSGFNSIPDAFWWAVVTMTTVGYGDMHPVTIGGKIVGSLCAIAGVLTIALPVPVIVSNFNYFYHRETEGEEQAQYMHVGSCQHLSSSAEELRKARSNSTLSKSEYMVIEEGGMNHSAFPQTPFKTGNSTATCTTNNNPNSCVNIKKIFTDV
smiles,measurement,value
CC[C@H](C)[C@@H]1NC(=O)[C@@H](NC(=O)[C@H](CO)NC(=O)[C@@H](N)CCCNC(=N)N)CSSC[C@@H](C(=O)O)NC(=O)[C@H]([C@@H](C)O)NC(=O)CNC(=O)[C@@H]2CSSC[C@@H]3NC(=O)[C@H](CCC(N)=O)NC(=O)[C@H](Cc4ccccc4)NC(=O)[C@H](C)NC(=O)[C@H]([C@@H](C)O)NC(=O)[C@H](CSSC[C@H](NC(=O)[C@H](Cc4ccccc4)NC(=O)[C@H](CO)NC(=O)[C@H](CC(C)C)NC(=O)[C@H](CCCNC(=N)N)NC(=O)[C@H](Cc4ccc(O)cc4)NC(=O)[C@H](CCCCN)NC(=O)[C@H](CCSC)NC(=O)[C@H](CO)NC(=O)[C@H](Cc4cnc[nH]4)NC(=O)[C@H](CCCCN)NC3=O)C(=O)N[C@@H](CCCNC(=N)N)C(=O)N[C@@H](CCCCN)C(=O)N[C@@H]([C@@H](C)O)C(=O)N2)NC(=O)[C@H](CCCNC(=N)N)NC(=O)[C@H](CO)NC(=O)[C@H](CCCCN)NC(=O)[C@@H]2CCCN2C(=O)[C@H]([C@@H](C)CC)NC(=O)[C@H]([C@@H](C)O)NC(=O)[C@H](CC(=O)O)NC1=O [ShK],IC50,9.3 ± 2 pM
